# Read-outs that look alike come from different tables or passages of the source.
# Key:
# Experiment in all cases: In vitro antibacterial MIC, agar plate dilution
# Type in all cases: cell-based
# [1] = system: Moranella morganii VGH 84-12; conditions: Mueller-Hinton agar, 10^4 CFU, 18 hours, 35° C.
# Description: (§1) The in vitro antimicrobial spectrum of the compounds of this invention were determined by the agar plate dilution method with Mueller-Hinton agar and an inoculum of each test organism of approximately 10^4 colony forming units delivered by the Steers replicating device. The minimal inhibitory concentration (MIC) in mcg/ml is defined as the lowest concentration of test compound that inhibited visible growth after 18 hours incubation at 35° C. Results are given in Table I, with the test compounds identified by the number of their hereinafter described examples
# [2] = system: Serratia marcescens K 84-18; conditions: K8418, 18 h, Table II, read-out: MIC
# Description: as §1
# [3] = system: Pseudomonas aeruginosa VGH 84-16; conditions: VGH8416, Mueller-Hinton agar, 10^4 CFU, 18 hours, 35° C.
# Description: as §1
# [4] = system: Streptococcus faecalis UCI 85-30; conditions: Enterococcus faecalis, UCI8530, Mueller-Hinton agar, 10^4 CFU, 18 hours, 35° C.
# Description: as §1
# [5] = system: Excherichia coli CMC 84-11; conditions: 18 h, Table II, read-out: MIC
# Description: as §1
# [6] = system: Staphylococcus faecalis CMC 83-120; conditions: CMC83120, Mueller-Hinton agar, 10^4 CFU, 18 hours, 35° C.
# Description: as §1
# [7] = system: Enterobacter cloacae MOR 84-30; conditions: MOR8430, Mueller-Hinton agar, 10^4 CFU, 18 hours, 35° C.
# Description: as §1
# [8] = system: Escherichia coli VGH 84-19; conditions: VGH8419, Mueller-Hinton agar, 10^4 CFU, 18 hours, 35° C.
# Description: as §1
# [9] = system: Streptococcus faecalis VGH 84-65; conditions: Enterococcus faecalis, VGH8465, 18 h, Table II, read-out: MIC
# Description: as §1
# [10] = system: Staphylococcus aureus K 82-26; conditions: K8226, Mueller-Hinton agar, 10^4 CFU, 18 hours, 35° C.
# Description: as §1
# [11] = system: Enterobacter cloacae VGH 84-39; conditions: VGH8439, Mueller-Hinton agar, 10^4 CFU, 18 hours, 35° C.
# Description: as §1
# [12] = system: Pseudomonas aeruginosa VGH 84-4; conditions: Pseudomonas aeruginosa, VGH844, 18 h, Table II, read-out: MIC
# Description: as §1
# [13] = system: Providencia stuartii CMC 83-3; conditions: CMC833, Mueller-Hinton agar, 10^4 CFU, 18 hours, 35° C.
# Description: as §1
# [14] = system: Klebsiella neumoniae MOR 84-24; conditions: MOR8424, Mueller-Hinton agar, 10^4 CFU, 18 hours, 35° C.
# Description: as §1
# [15] = system: Enterobacter cloacae K 84-10; conditions: K8410, Mueller-Hinton agar, 10^4 CFU, 18 hours, 35° C.
# Description: as §1
# [16] = system: Pseudomonas aeruginosa LL-1244; conditions: Pseudomonas aeruginosa, LL1244, 18 h, Table II, read-out: MIC
# Description: as §1
# [17] = system: Serratia marcescens CMC 83-74; conditions: CMC8374, Mueller-Hinton agar, 10^4 CFU, 18 hours, 35° C.
# Description: as §1
# [18] = system: Morganella morganii MOR 84-45; conditions: MOR8445, Mueller-Hinton agar, 10^4 CFU, 18 hours, 35° C.
# Description: as §1
# [19] = system: Proteus rettgeri CMC 84-41; conditions: Providencia rettgeri, CMC8441, 18 h, Table II, read-out: MIC
# Description: as §1
# [20] = system: Escherichia coli ATCC 25922; conditions: Escherichia coli, ATCC25922, 18 h, read-out: MIC
# Description: as §1
# [21] = system: Serratia marcescens MOR 84-41; conditions: MOR8441, Mueller-Hinton agar, 10^4 CFU, 18 hours, 35° C.
# Description: as §1
# [22] = system: Serratia marcescens VGH 84-30; conditions: VGH8430, 18 h, Table II, read-out: MIC
# Description: as §1
# [23] = system: Staphylococcus aureus VGH 84-47; conditions: VGH8447, Mueller-Hinton agar, 10^4 CFU, 18 hours, 35° C.
# Description: as §1
# [24] = system: Klebsiella neumoniae IO 83-5; conditions: IO835, Mueller-Hinton agar, 10^4 CFU, 18 hours, 35° C.
# Description: as §1
# Excherichia coli LL 311 = conditions: 18 h, Table II, read-out: MIC
# Description: as §1
# [25] = system: Proteus rettgeri IO 83-21; conditions: Providencia rettgeri, IO8321, Mueller-Hinton agar, 10^4 CFU, 18 hours, 35° C.
# Description: as §1
# [26] = system: Morganella morganii CMC 84-37; conditions: CMC8437, 18 h, Table II, read-out: MIC
# Description: as §1
# [27] = system: Escherichia coli CMC 84-50; conditions: CMC8450, Mueller-Hinton agar, 10^4 CFU, 18 hours, 35° C.
# Description: as §1
# [28] = system: Staphylococcus aureus ATCC 29213; conditions: Staphylococcus aureus, ATCC29213, 18 h, read-out: MIC
# Description: as §1
# [29] = system: Escherichia coli MOR 84-20; conditions: MOR8420, Mueller-Hinton agar, 10^4 CFU, 18 hours, 35° C.
# Description: as §1
# [30] = Table I, Escherichia coli ATCC 25922, Mueller-Hinton agar, 10^4 CFU, 18 hours, 35° C.
# [31] = Table II, Excherichia coli ATCC 25922
# [32] = Table I, Mueller-Hinton agar, 10^4 CFU, 18 hours, 35° C.
MIC [1] [µg/mL],MIC [2] [µg/mL],MIC [3] [µg/mL],MIC [4] [µg/mL],MIC [5] [µg/mL],MIC [6] [µg/mL],MIC [7] [µg/mL],MIC [8] [µg/mL],MIC [9] [µg/mL],MIC [10] [µg/mL],MIC [11] [µg/mL],MIC [12] [µg/mL],MIC [13] [µg/mL],MIC [14] [µg/mL],MIC [15] [µg/mL],MIC [16] [µg/mL],MIC [17] [µg/mL],MIC [18] [µg/mL],MIC [19] [µg/mL],"MIC [20, 30] [µg/mL]",SMILES,further results
2,4,> 16,4,2,4,4,1,32,1,1,64,> 16,2,1,32,> 16,0.5,8,0.5,"CCn1cc(C(=O)O)c(=O)c2cc(F)c(N[C@@H]3CCC[C@@H]3N)cc21 (relative stereo) [Example 4, Cis-7-[(2-Aminocyclopentyl)amino]-1-ethyl-6-fluoro-1,4-dihydro-4-oxo-3-quinolinecarboxylic acid]","MIC [20, 31]: 2 µg/mL; MIC [21]: 1 µg/mL; MIC [22]: 16 µg/mL; MIC [23]: 2 µg/mL; MIC [24]: 2 µg/mL; MIC (Excherichia coli LL 311): 2 µg/mL; MIC [25]: 2 µg/mL; MIC [26]: 4 µg/mL; MIC [27]: 2 µg/mL; MIC [28, 32]: 4 µg/mL; MIC ([28]; Table II): 128 µg/mL; MIC [29]: 1 µg/mL"
4,2,> 16,> 16,1,> 16,8,2,64,4,2,16,> 16,4,2,16,> 16,4,4,2,N[C@H]1CCC[C@H]1Nc1cc2c(cc1F)c(=O)c(C(=O)O)cn2-c1ccc(F)cc1 (relative stereo) [Example 3],"MIC [20, 31]: 1 µg/mL; MIC [21]: 4 µg/mL; MIC [22]: 8 µg/mL; MIC [23]: 4 µg/mL; MIC [24]: 4 µg/mL; MIC (Excherichia coli LL 311): 1 µg/mL; MIC [25]: 4 µg/mL; MIC [26]: 4 µg/mL; MIC [27]: 4 µg/mL; MIC [28, 32]: 4 µg/mL; MIC ([28]; Table II): 4 µg/mL; MIC [29]: 2 µg/mL"

# From patent publication US4992449A, “7-(substituted)cycloalkylamino-1 -(substituted)-6-fluoro-1,4-dihydro-4-oxo-3-quinolinecarboxylic acids” (American Cyanamid Company, priority 1990, dated 1991)
